Data published in ChEMBL document CHEMBL1148181, “Anti-AIDS agents, 9. Suberosol, a new C31 lanostane-type triterpene and anti-HIV principle from Polyalthia suberosa” (J Nat Prod, 1993).
Converted amounts (≈) assume the structure as drawn.

How the values were obtained:
[1] = system: Human immunodeficiency virus 1; assay: Antiviral activity against HIV1 3B in human H9 lymphocytes after 3 days by p24 antigen capture assay; type: functional, organism-based; conditions: Human immunodeficiency virus 1, 3B, 72 h
[2] = system: H9; assay: Cytotoxicity against human H9 lymphocytes; type: cell-based

EC50 [1]: 3 µg/mL (≈ 6.6 µM)
SMILES: C=C(CC[C@@H](C)[C@H]1C[C@H](O)[C@@]2(C)C3=CC[C@H]4C(C)(C)[C@@H](O)CC[C@]4(C)C3=CC[C@]12C)C(C)C [SUBEROSOL]
IC50 [2]: 20 µg/mL (≈ 44 µM)
